Laboratory results published in US12715850B2, “Low toxicity NMP substitutes and uses thereof” (Advancion Corporation, priority 2020, dated 2026).

Key:
[1] = Solubility of the product in water and mineral oil; type: physicochemical
Method: The resulting nitro amidef was added to a 2 L Parr reactor along with 300 g methanol and 30 g of damp Raney® nickel. The reactor was purged with hydrogen. The reagents were stirred and reacted at 65° C. and 750 psig hydrogen. In a separate vessel, a blend of 400 g (2.13 mol) of nitroamide (prepared in previous example) and 431 g (5.31 mol) of formaldehyde (37% aqueous, Fisher Scientific) was prepared. The nitroamide/formaldehyde mixture was added to the reactor under stirring while maintaining 65° C. Followed by flushing with 50 g (0.62 mol) of 37% aqueous formaldehyde. The reactor contents were held at 65° C. for 2 hours followed by cooling to 25° C. The reactor was vented and the catalyst filtered off the product. After rinsing the catalyst with methanol (2×20 mL), the filtrate was concentrate under vacuum. The product was isolated and purified using vacuum distillation to provide a pale yellow liquid recovered in 75% yield from DMAA having purity >99% by GC-FID. The boiling point was determined to be 170° C. at 40 mmHg, 145° C. at 15 mmHg, and 137° C. at 10 mmHg. ^1H NMR (400 MHz, D2O): d=2.95 (s, 3H), 2.88 (s, 3H), 2.24 (m, 2H), 2.05 (s, 6H), 1.54 (m, 2H), 0.91 (s, 6H).

animals [2] = details: animals ingested NMP repeatedly at lower levels; cited from earlier work
[3] = following inhalation, oral and dermal exposure in humans and animals; cited from earlier work
experimental animals = details: high levels over short time by inhalation, dermal exposure, and ingestion; cited from earlier work
animals [4] = details: long-term oral exposures in animals; cited from earlier work
[5] = oral reproduction toxicity study; at doses lower than those that caused maternal toxicity; cited from earlier work

solubility in mineral oil ([1]; mineral oil) | solubility in water ([1]; water) | Structure (SMILES) | adverse effects (animals [2]) | absorption [3] | toxicity (experimental animals) | effects of long-term oral exposures (animals [4]) | developmental toxicity [5]
soluble | soluble | CN(C)C(=O)CCC(C)(C)N(C)C [Example 3, 4-(dimethylamino)-N,N-4-trimethylpentamide] |  |  |  |  | 
 |  | CN1CCCC1=O [NMP, N-methyl-2-pyrrolidone] | changes in body weight, liver weight, neurotoxicity, and thymus atrophy | well absorbed | low toxicity | increased incidence of large kidneys, kidneys diagnosed with chronic problems, fluid in the pleural cavity and small testes | decrease in fetal weight and malformations
